According to US4153729A, “Therapeutically useful cysteinol and homocysteinol derivatives” (Recherches Pharmaceutiques et Scientifiques, priority 1977, dated 1979):
Structures can show the parent of a compound that is named as a salt.

Assays:
[1] = Oral LD 50 determined according to the method of Karber and Behrens on mice; conditions: mouse, in vivo, female mice 24 to 26 g, read-out: LD 50 per os
Description: The products of the invention are hardly toxic.
The oral LD 50 (see the table below) was determined according to the method of Karber and Behrens (Arch. Exp. Pathol. Pharm. 177, 1935, page 379) on mice EVIC CEBA .female. Swiss EOPS NMRI Han of 24 to 26 g weight.

rats = test: Hypolipemic activity: hyperlipidemia experimentally induced by Triton in rats; format: in vivo; parameters: key: NS: non-significant result; conditions: 18 h after i.v. Triton; for Hypolipemic activity, percentages of diminution: total lipids / Hypolipemic activity, percentages of diminution: Cholesterol / Hypolipemic activity, percentages of diminution: Triglycerides / Hypolipemic activity, percentages of diminution: β-lipoprotein: single p.o. dose mg/kg: clofibrate 225, Ex 1, 2: 500, Ex 3: 270, Ex 4: 127, Ex 5: 175, Ex 6: 310, Ex 12: 250, Ex 13: 140, Ex 14: 95; for Hypolipemic activity, percentages of diminution: optical serum density: serum at 691 nanometres, single p.o. dose mg/kg: Ex 1, 2: 500, Ex 3: 270, Ex 4: 127, Ex 5: 175, Ex 6: 310, Ex 12: 250, Ex 13: 140, Ex 14: 95
Description: The technique used to show these properties has been described by M. Friedman and S. E. Byers in : J. Exptl. Med. 97, 117, 1953 and likewise by S. Garattini and colleagues in Arzneim. Forsch. 9, 206, 1959.
The rats received intravenously 0.3 ml per 100 grams of body weight of a solution of Triton 13 39 at 10%. The products to be tested are administered simultaneously orally at a dose corresponding to a tenth of their LD 50, determined orally in mice, without the dose used exceeding 500 mg/kg.
Eighteen hours after the injection of Triton the animals are sacrificed by section of the carotid and the blood is collected to determined the lipid parameters : cholesterol (auto-analyser Technicon AA II Lieberman Burchard), beta- lipoproteins, (Burnstein), total lipids (Chabrol and Charonnat), triglycerides (Boehringer enzymatic).
The optical density of the serum at 691 nanometres is measured in each case. Each product was tested on ten animals. The statistic calculations were carried out on the averages affected by their divergence from the average using the Student test.
The reference compound used is clofibrate.

[2] = Solubility of the isolated product; format: physicochemical; conditions: in words

Row | SMILES | LD50 [1] | Hypolipemic activity, percentages of diminution: total lipids (rats) | solubility [2] | Hypolipemic activity, percentages of diminution: Cholesterol (rats) | Hypolipemic activity, percentages of diminution: Triglycerides (rats) | Hypolipemic activity, percentages of diminution: optical serum density (rats) | Hypolipemic activity, percentages of diminution: β-lipoprotein (rats)
1 | CCOC(=O)C(C)(C)Oc1ccc(Cl)cc1 [Clofibrate, reference compound] | 2300 mg/kg |  |  |  |  |  | 
2 | NC(CO)CSCCCCCCCCSCC(N)CO (centres unmarked) [Example 4, 2,15-diamino-4,13-dithia-1,16-hexadecanediol] | 1280 mg/kg | NS | soluble in water, alcohols, ether |  |  |  | 
3 | NC(CO)CSCCCCCCSCC(N)CO (centres unmarked) [Example 3, 2,13-diamino-4,11-dithia-1,14-tetradecanediol] | 2700 mg/kg |  | soluble in water, alcohols, ether |  |  |  | 
4 | NC(CO)CCSCCCCCCCCCCSCCC(N)CO (centres unmarked) [Example 14, 2,19-diamino-5,16-dithia-1,20-eicosanediol] | 950 mg/kg | NS | soluble in water and alcohols | NS | NS | NS | 
5 | NC(CO)CSCCCCCCCCCCSCC(N)CO (centres unmarked) [Example 5, 2,17-diamino-4,15-dithia-1,18-octadecanediol] | 1750 mg/kg | NS |  |  |  |  | NS
6 | NC(CO)CCSCCCCCSCCC(N)CO (centres unmarked) [Example 11, mandelate of 2,14-diamino-5,11-dithia-1,15-pentadecanediol] |  |  | Soluble in water, alcohols, DMF |  |  |  | 
7 | NC(CO)CCSCCCCCCSCCC(N)CO (centres unmarked) [Example 12, 2,15-diamino-5,12-dithia-1,16-hexadecanediol] | 2500 mg/kg | NS | soluble in water and alcohols | NS | NS | NS | 
8 | NC(CO)CCSCSCCC(N)CO (centres unmarked) [Example 8, neutral oxalate of 2,10-diamino-5,7-dithia-1,11 undecanediol] |  |  | Soluble in water and alcohols |  |  |  | 
9 | NC(CO)CCSCCSCCC(N)CO (centres unmarked) [Example 9, neutral oxalate of 2,11-diamino-5,8-dithia-1,12 dodecanediol] |  |  | soluble in water and alcohols |  |  |  | 
10 | NC(CO)CCSCCCCCCCCSCCC(N)CO (centres unmarked) [Example 13, 2,17-diamino-5,14-dithia-1,18-octadecanediol] | 1400 mg/kg |  | soluble in water and alcohols |  |  |  | 
11 | NC(CO)CSSCC(N)CO (centres unmarked) [Example 6, 2,7-diamino-4,5-dithia-1,8-octanediol] | 3100 mg/kg |  | soluble in water, methanol, ethanol |  |  |  | 
12 | NC(CO)CSCSCC(N)CO (centres unmarked) [Example 1, 2,8-diamino-4,6-dithia-1,9-nonanediol] | > 5000 mg/kg | NS | soluble in the cold in water, alcohol, ether |  | NS | NS | NS
13 | NC(CO)CCSCCCCSCCC(N)CO (centres unmarked) [Example 10, mandelate of 2,13-diamino-5,10-dithia-1,14-tetradecanediol] |  |  | soluble in water, alcohols and dimethylformamide |  |  |  | 
14 | NC(CO)CSCCCCSCC(N)CO (centres unmarked) [Example 2, 2,11-diamino-4,9-dithia-1,12-dodecanediol] | 5000 mg/kg | NS | soluble in water, alcohols, ether | NS |  | NS | NS
